Reference: ChEMBL document CHEMBL1153928, “Novel N-substituted 2-phenyl-1-sulfonylamino-cyclopropane carboxylates as selective ADAMTS-5 (Aggrecanase-2) inhibitors” (Bioorg Med Chem Lett, 2009)
pIC50: −log10 of the molar value. Activity calls are given as the source filed them. The calls are words filed in the database; no cut-off is given here.

Tests used:
[1] = molecular target: Disintegrin and metalloproteinase domain-containing protein 17 (Homo sapiens) (UniProt P78536); test: Inhibition of TACE at 10 uM
[2] = molecular target: T1, A disintegrin and metalloproteinase with thrombospondin motifs 5 (Homo sapiens, UniProt Q9UNA0); test: Inhibition of recombinant aggrecanase 2
T1 sequence (Q9UNA0 whole entry): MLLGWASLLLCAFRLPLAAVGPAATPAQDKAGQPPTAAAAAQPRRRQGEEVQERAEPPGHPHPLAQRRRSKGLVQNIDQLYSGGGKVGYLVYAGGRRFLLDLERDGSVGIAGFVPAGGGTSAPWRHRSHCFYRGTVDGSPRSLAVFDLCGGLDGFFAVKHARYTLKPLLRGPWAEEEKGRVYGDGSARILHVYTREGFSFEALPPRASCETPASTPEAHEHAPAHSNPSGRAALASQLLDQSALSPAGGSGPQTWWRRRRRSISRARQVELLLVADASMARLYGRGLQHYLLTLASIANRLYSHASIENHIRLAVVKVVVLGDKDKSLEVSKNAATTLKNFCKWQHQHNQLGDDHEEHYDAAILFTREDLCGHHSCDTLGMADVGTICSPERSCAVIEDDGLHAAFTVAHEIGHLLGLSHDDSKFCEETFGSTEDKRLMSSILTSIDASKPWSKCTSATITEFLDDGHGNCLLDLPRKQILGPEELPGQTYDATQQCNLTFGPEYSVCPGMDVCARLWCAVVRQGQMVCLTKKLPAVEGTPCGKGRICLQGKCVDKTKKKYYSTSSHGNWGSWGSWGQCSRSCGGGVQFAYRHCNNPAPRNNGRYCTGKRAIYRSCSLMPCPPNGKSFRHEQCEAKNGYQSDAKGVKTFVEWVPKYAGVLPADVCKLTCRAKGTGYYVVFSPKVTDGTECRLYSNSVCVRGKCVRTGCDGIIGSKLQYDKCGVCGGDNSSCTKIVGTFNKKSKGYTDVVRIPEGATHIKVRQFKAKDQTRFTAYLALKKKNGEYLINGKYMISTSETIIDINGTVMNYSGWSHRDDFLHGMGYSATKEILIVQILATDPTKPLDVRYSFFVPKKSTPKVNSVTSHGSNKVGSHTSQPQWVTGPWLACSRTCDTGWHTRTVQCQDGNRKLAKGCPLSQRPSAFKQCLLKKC

[3] = molecular target: T2, Interstitial collagenase (Homo sapiens) (UniProt P03956); test: Inhibition of MMP1 at 10 uM
T2 sequence (whole entry): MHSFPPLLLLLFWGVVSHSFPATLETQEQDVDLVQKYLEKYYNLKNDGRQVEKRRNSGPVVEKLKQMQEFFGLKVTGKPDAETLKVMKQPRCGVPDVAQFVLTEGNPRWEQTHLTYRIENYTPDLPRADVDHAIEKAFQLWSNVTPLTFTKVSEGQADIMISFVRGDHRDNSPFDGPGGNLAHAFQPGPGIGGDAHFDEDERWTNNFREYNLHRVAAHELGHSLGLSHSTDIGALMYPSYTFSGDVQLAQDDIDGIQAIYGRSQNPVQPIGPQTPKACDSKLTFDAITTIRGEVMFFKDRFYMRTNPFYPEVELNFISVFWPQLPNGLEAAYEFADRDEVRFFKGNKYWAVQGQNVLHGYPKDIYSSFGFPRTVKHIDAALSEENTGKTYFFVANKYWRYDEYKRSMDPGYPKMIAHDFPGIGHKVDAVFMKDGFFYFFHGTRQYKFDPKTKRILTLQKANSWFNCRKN

[4] = molecular target: T3, A disintegrin and metalloproteinase with thrombospondin motifs 5 (Homo sapiens) (UniProt Q9UNA0); test: Inhibition of recombinant aggrecanase 2 at 10 uM
T3 sequence (whole entry): T1 sequence (Q9UNA0 whole entry)

Disintegrin and metalloproteinase domain-containing protein 17 (Homo sapiens), sequence (P78536 whole entry, the tested form may be a part): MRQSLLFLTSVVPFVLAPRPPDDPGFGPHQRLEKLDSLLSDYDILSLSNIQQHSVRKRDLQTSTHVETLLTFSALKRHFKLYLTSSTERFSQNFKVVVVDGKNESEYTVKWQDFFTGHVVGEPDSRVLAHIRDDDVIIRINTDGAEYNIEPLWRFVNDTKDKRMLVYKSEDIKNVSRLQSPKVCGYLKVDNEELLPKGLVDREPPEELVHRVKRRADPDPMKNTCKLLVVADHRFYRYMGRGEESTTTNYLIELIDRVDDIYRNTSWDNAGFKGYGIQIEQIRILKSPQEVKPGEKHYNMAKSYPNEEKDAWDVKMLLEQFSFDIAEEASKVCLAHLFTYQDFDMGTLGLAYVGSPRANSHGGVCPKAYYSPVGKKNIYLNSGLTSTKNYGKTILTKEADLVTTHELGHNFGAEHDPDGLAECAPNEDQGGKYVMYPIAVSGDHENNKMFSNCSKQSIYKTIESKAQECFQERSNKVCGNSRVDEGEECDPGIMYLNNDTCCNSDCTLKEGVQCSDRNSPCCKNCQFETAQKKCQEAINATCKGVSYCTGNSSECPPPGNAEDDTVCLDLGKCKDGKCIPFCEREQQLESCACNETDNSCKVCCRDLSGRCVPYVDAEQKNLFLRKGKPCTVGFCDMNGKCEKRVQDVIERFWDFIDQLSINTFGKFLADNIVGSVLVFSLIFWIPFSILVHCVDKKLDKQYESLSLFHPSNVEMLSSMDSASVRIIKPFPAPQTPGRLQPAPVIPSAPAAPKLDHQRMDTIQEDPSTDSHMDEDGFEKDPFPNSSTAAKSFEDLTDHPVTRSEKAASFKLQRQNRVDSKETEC

SMILES | Activity [1] | pIC50 [2] | Activity [3] | inhibition [4]
O=C(O)[C@@]1(N(CCn2ccnn2)S(=O)(=O)c2ccc(-c3ccc(Cl)cc3)cc2)C[C@H]1c1ccccc1 | inactive | 6.57 | inactive | –
O=C(O)[C@@]1(N(CCc2ccccn2)S(=O)(=O)c2ccc(-c3ccc(Cl)cc3)cc2)C[C@H]1c1ccccc1 | inactive | 6.09 | inactive | –
O=C(O)[C@@]1(N(CCc2ccncc2)S(=O)(=O)c2ccc(-c3ccc(Cl)cc3)cc2)C[C@H]1c1ccccc1 | inactive | 6.12 | inactive | –
O=C1OCCN1CCN([C@]1(C(=O)O)C[C@H]1c1ccccc1)S(=O)(=O)c1ccc(-c2ccc(Cl)cc2)cc1 | inactive | 6.66 | inactive | –
CC(=O)Nc1ccc(-c2ccc(S(=O)(=O)N(CCN3CCCC3=O)[C@]3(C(=O)O)C[C@H]3c3ccccc3)cc2)cc1 | – | 5.35 | – | –
O=C(O)[C@@H](Cc1ccccc1)N(CC1CCCCC1)S(=O)(=O)c1ccc(-c2ccc(Cl)cc2)cc1 | – | – | – | 22%
O=C(O)[C@@H](Cc1ccccc1)N(Cc1ccccc1)S(=O)(=O)c1ccc(-c2ccc(Cl)cc2)cc1 | – | – | – | 30%
O=C(O)[C@@]1(N(CCn2nccn2)S(=O)(=O)c2ccc(-c3ccc(Cl)cc3)cc2)C[C@H]1c1ccccc1 | inactive | 6.59 | inactive | –
O=C1CCC(=O)N1CCN([C@]1(C(=O)O)C[C@H]1c1ccccc1)S(=O)(=O)c1ccc(-c2ccc(Cl)cc2)cc1 | inactive | 6.51 | inactive | –
O=C(O)[C@@]1(N(CCn2cnnc2)S(=O)(=O)c2ccc(-c3ccc(Cl)cc3)cc2)C[C@H]1c1ccccc1 | inactive | 6.72 | inactive | –
O=C1CCCN1CCN([C@]1(C(=O)O)C[C@H]1c1ccccc1)S(=O)(=O)c1ccc(C#CCO)cc1 | – | – | – | -1.5%
O=C(O)[C@@]1(N(CCn2cnnn2)S(=O)(=O)c2ccc(-c3ccc(Cl)cc3)cc2)C[C@H]1c1ccccc1 | inactive | 6.57 | inactive | –
O=C(O)[C@@H](Cc1ccccc1)N(CCc1ccccc1)S(=O)(=O)c1ccc(-c2ccc(Cl)cc2)cc1 | – | 5.14 | – | –
COCC#Cc1ccc(S(=O)(=O)N(CCN2CCCC2=O)[C@]2(C(=O)O)C[C@H]2c2ccccc2)cc1 | – | – | – | 2.9%
COC(=O)c1cncn1CCN([C@]1(C(=O)O)C[C@H]1c1ccccc1)S(=O)(=O)c1ccc(-c2ccc(Cl)cc2)cc1 | inactive | 6.64 | inactive | –
O=C1CCCN1CCN([C@]1(C(=O)O)C[C@H]1c1ccccc1)S(=O)(=O)c1ccc(-c2ccc(Cl)cc2)nc1 | – | 5.96 | – | –
O=C(O)[C@@H](Cc1ccccc1)N(CCN1CCCC1=O)S(=O)(=O)c1ccc(-c2ccc(Cl)cc2)cc1 | – | 5.80 | – | –
O=C1CCCCN1CCN([C@]1(C(=O)O)C[C@H]1c1ccccc1)S(=O)(=O)c1ccc(-c2ccc(Cl)cc2)cc1 | inactive | 6.68 | inactive | –

SMILES | Activity [1] | pIC50 [2] | Activity [3] | inhibition [4]
O=C1CCCN1CCN([C@]1(C(=O)O)C[C@H]1c1ccccc1)S(=O)(=O)c1ccc(-c2ccncc2)cc1 | – | – | – | 18%
C[C@@](Cc1ccccc1)(C(=O)O)N(CCN1CCCC1=O)S(=O)(=O)c1ccc(-c2ccc(Cl)cc2)cc1 | – | – | – | 0.1%
O=C(O)[C@@H](Cc1ccccc1)N(CC1CC1)S(=O)(=O)c1ccc(-c2ccc(Cl)cc2)cc1 | – | – | – | 46%
COc1cccn(CCN([C@]2(C(=O)O)C[C@H]2c2ccccc2)S(=O)(=O)c2ccc(-c3ccc(Cl)cc3)cc2)c1=O | inactive | 7.11 | inactive | –
O=C1CCCN1CCN([C@]1(C(=O)O)C[C@H]1c1ccccc1)S(=O)(=O)N1CC=C(c2ccc(Cl)cc2)CC1 | – | 6.06 | – | –
COC(=O)c1cn(CCN([C@]2(C(=O)O)C[C@H]2c2ccccc2)S(=O)(=O)c2ccc(-c3ccc(Cl)cc3)cc2)cn1 | inactive | 7.14 | inactive | –
O=C(O)[C@@]1(N(CCn2ccnc2)S(=O)(=O)c2ccc(-c3ccc(Cl)cc3)cc2)C[C@H]1c1ccccc1 | inactive | 6.49 | inactive | –
O=C(O)[C@@]1(N(CCc2cccnc2)S(=O)(=O)c2ccc(-c3ccc(Cl)cc3)cc2)C[C@H]1c1ccccc1 | inactive | 6.54 | inactive | –
O=C(O)[C@@]1(N(CCn2cnc3cncnc32)S(=O)(=O)c2ccc(-c3ccc(Cl)cc3)cc2)C[C@H]1c1ccccc1 | inactive | 6.77 | inactive | –
O=C1CCCN1CCN([C@]1(C(=O)O)C[C@H]1c1ccccc1)S(=O)(=O)c1ccc(-c2ccc(Cl)cc2)cc1 | inactive | 6.70 | inactive | –
O=C(O)[C@@H](Cc1ccccc1)NS(=O)(=O)c1ccc(-c2ccc(Cl)cc2)cc1 | – | 5.49 | – | –
O=C1OCCCN1CCN([C@]1(C(=O)O)C[C@H]1c1ccccc1)S(=O)(=O)c1ccc(-c2ccc(Cl)cc2)cc1 | inactive | 6.74 | inactive | –
CN([C@H](Cc1ccccc1)C(=O)O)S(=O)(=O)c1ccc(-c2ccc(Cl)cc2)cc1 | – | 5.10 | – | –
O=C(O)[C@@]1(N(CCn2cnc3ncncc32)S(=O)(=O)c2ccc(-c3ccc(Cl)cc3)cc2)C[C@H]1c1ccccc1 | inactive | 7.15 | inactive | –
CN(C)c1ccc(-c2ccc(S(=O)(=O)N(CCN3CCCC3=O)[C@]3(C(=O)O)C[C@H]3c3ccccc3)cc2)cc1 | – | 5.18 | – | –
O=C(O)[C@@]1(N(CCn2cncn2)S(=O)(=O)c2ccc(-c3ccc(Cl)cc3)cc2)C[C@H]1c1ccccc1 | inactive | 6.74 | inactive | –
CN([C@@H](Cc1ccccc1)C(=O)O)S(=O)(=O)c1ccc(-c2ccc(Cl)cc2)cc1 | – | – | – | -0.12%
